The values below come from US20250243196A1, “CITRON KINASE INHIBITORS” (The Cleveland Clinic Foundation, priority 2021, published 2025).

This experiment concerns the target Citron kinase (Homo sapiens (Human), UniProt O14578). The experiment is described as follows: Radiometric citron kinase assay (Eurofins Cat #16-040KP). In kind it is biochemical. Particulars: mean of at least two independent assays; read-out: Radiometric CitK IC50. The text has this:
In some embodiments, the step of contacting the sample with the compound comprises administering the compound to a subject (e.g., a subject) suffering from cancer. Methods of determining kinase inhibition are well known in the art. For example, kinase activity of an enzyme and the inhibitory capacity of a test compound can be determined by measuring enzyme specific phosphorylation of a substrate. Commercial assays and kits can be employed. For example, kinase inhibition can be determined using a radiometric binding assay, such as using KinaseProfiler™ technology (Eurofins Discovery). This assay method directly detects product formation without the use of modified substrates or coupling enzymes. Test compounds are incubated with kinase, substrate, required cofactors and radioisotope labeled ATP. Following incubation, unreacted radioactive ATP is removed by washing and incorporation of the radiolabeled phosphate into the kinase substrate is assayed to detect phosphoryltransferase activity, which is directly proportional to the amount of phosphorylated substrate. Inhibition of the kinase by a kinase inhibitor prevents phosphorylation of the substrate and thereby limits the incorporation of radiolabeled phosphate. Such an assay is compatible with a microwell assay format, allowing simultaneous determination of IC50 of multiple compounds.
Compounds were screened for biochemical kinase activity (Eurofins Discovery, France) using one of two assays. […] All values in Table 1 are the mean of at least two independent assays.

The structures appear in SMILES notation.

In general, IC50 refers to the concentration at which inhibition is half-maximal.

Citron kinase, sequence (O14578 whole entry): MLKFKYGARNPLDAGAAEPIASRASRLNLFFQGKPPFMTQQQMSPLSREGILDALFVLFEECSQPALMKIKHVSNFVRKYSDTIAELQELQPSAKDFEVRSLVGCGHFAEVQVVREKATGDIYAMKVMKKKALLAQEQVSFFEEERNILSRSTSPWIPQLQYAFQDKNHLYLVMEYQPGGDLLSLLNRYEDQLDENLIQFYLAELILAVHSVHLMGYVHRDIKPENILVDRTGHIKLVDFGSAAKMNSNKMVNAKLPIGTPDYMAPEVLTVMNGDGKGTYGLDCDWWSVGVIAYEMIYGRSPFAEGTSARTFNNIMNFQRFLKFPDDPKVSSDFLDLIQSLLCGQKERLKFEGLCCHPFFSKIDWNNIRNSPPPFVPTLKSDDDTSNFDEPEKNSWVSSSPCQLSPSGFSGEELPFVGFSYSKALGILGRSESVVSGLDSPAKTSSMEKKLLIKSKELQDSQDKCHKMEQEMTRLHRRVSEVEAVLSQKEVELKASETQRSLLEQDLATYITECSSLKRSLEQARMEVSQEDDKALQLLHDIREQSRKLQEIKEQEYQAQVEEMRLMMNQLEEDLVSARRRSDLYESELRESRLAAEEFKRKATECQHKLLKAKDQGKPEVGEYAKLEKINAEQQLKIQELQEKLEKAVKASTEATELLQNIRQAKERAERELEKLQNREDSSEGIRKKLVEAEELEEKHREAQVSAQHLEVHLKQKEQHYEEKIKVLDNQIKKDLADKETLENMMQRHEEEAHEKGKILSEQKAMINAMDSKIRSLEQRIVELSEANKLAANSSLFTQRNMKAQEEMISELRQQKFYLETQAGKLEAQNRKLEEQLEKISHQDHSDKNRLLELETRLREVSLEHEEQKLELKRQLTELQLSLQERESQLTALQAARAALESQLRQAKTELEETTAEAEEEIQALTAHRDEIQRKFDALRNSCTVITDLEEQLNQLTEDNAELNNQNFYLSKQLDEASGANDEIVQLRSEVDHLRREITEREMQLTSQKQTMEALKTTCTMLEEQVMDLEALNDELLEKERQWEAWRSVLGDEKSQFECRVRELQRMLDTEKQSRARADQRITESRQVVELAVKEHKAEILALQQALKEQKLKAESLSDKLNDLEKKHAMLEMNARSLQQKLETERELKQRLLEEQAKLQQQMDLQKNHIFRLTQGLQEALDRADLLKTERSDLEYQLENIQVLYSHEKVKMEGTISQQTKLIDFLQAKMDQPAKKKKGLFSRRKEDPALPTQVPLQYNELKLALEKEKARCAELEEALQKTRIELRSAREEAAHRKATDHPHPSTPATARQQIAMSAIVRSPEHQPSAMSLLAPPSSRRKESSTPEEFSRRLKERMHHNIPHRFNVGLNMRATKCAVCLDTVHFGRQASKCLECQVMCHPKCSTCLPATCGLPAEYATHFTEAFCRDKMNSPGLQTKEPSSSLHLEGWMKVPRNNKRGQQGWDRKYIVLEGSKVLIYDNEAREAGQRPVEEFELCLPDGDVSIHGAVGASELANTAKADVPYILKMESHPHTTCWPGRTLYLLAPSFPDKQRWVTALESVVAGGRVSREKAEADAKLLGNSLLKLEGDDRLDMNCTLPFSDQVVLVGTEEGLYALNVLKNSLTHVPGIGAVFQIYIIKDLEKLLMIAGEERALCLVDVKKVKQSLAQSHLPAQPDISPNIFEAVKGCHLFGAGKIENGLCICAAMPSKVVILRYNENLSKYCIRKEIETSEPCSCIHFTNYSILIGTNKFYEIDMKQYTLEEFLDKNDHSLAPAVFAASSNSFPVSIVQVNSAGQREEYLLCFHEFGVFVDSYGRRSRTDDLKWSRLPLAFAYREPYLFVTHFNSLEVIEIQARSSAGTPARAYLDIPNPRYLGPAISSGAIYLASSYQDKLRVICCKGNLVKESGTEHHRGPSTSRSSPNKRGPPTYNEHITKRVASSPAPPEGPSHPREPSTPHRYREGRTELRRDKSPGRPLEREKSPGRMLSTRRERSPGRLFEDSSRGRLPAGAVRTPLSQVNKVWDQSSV

On to `CNCC(=O)Nc1ccc(-c2ccnc3[nH]ccc23)cc1` [Compound F-2, N-(4-(1H-pyrrolo[2,3-b]pyridin-4-yl)phenyl)-2-(methylamino)acetamide], for which the half-maximal inhibitory concentration (IC50) came to 728 nM. `CN(C)CC(=O)Nc1ccc(-c2ccnc3[nH]ccc23)cc1` [Compound F-3, 2-(Dimethylamino)-N-[4-(1H-pyrrolo[2,3-b]pyridin-4-yl)phenyl]acetamide]: the IC50 was 1060 nM. For the molecule `C[C@H](N)C(=O)Nc1ccc(-c2ccnc3[nH]ccc23)cc1` [Compound F-4, (2S)-2-Amino-N-[4-(1H-pyrrolo[2,3-b]pyridin-4-yl)phenyl]propenamide], the IC50 stood at 3000 nM. As for `C[C@@H](N)C(=O)Nc1ccc(-c2ccnc3[nH]ccc23)cc1` [Compound F-5, (2R)-2-Amino-N-[4-(1H-pyrrolo[2,3-b]pyridin-4-yl)phenyl]propenamide], the IC50 turned out to be 806 nM. For `CC[C@H](C)[C@H](N)C(=O)Nc1ccc(-c2ccnc3[nH]ccc23)cc1` [Compound F-10, (2S,3S)-2-Amino-3-methyl-N-[4-(1H-pyrrolo[2,3-b]pyridin-4-yl)phenyl]pentanamide] the value was 91.9 nM. On to `CC[C@@H](C)[C@@H](N)C(=O)Nc1ccc(-c2ccnc3[nH]ccc23)cc1` [Compound F-11, (2R,3R)-2-Amino-3-methyl-N-[4-(1H-pyrrolo[2,3-b]pyridin-4-yl)phenyl]pentanamide], for which the IC50 was found to be 315 nM.

As for `CCC[C@@H](N)C(=O)Nc1ccc(-c2ccnc3[nH]ccc23)cc1` [Compound F-14, (2R)-2-Amino-N-[4-(1H-pyrrolo[2,3-b]pyridin-4-yl)phenyl]pentanamide], the IC50 turned out to be 69.6 nM. Under `NC(CC(F)(F)F)C(=O)Nc1ccc(-c2ccnc3[nH]ccc23)cc1` (centres unmarked) [Compound F-22, 2-Amino-4,4,4-trifluoro-N-[4-(1H-pyrrolo[2,3-b]pyridin-4-yl)phenyl]butanamide] stands 554 nM; under `NC(C(=O)Nc1ccc(-c2ccnc3[nH]ccc23)cc1)C1(C(F)(F)F)CC1` (centres unmarked) [Compound F-23, 2-Amino-N-[4-(1H-pyrrolo[2,3-b]pyridin-4-yl)phenyl]-2-[1-(trifluoromethyl)cyclopropyl]acetamide], 172 nM. As for `N[C@H](CCC(F)(F)F)C(=O)Nc1ccc(-c2ccnc3[nH]ccc23)cc1` [Compound F-24, (2R)-2-Amino-5,5,5-trifluoro-N-[4-(1H-pyrrolo[2,3-b]pyridin-4-yl)phenyl]pentanamide], the IC50 was 66.7 nM.

Take `COCCC(N)C(=O)Nc1ccc(-c2ccnc3[nH]ccc23)cc1` (centres unmarked) [Compound F-26, 2-Amino-4-methoxy-N-[4-(1H-pyrrolo[2,3-b]pyridin-4-yl)phenyl]butanamide]: the IC50 amounted to 2470 nM. For `CC(O)[C@H](N)C(=O)Nc1ccc(-c2ccnc3[nH]ccc23)cc1` (stereo partly drawn) [Compound F-29, (2S)-2-Amino-3-hydroxy-N-[4-(1H-pyrrolo[2,3-b]pyridin-4-yl)phenyl]butanamide] the value was 778 nM; for `CC(O)[C@@H](N)C(=O)Nc1ccc(-c2ccnc3[nH]ccc23)cc1` (stereo partly drawn) [Compound F-30, (2R)-2-Amino-3-hydroxy-N-[4-(1H-pyrrolo[2,3-b]pyridin-4-yl)phenyl]butanamide], 218 nM; for `CC(C)(O)[C@@H](N)C(=O)Nc1ccc(-c2ccnc3[nH]ccc23)cc1` [Compound F-31, (2R)-2-Amino-3-hydroxy-3-methyl-N-[4-(1H-pyrrolo[2,3-b]pyridin-4-yl)phenyl]butanamide], 52.4 nM.

For the molecule `CCN[C@H](CC(C)C)C(=O)Nc1ccc(-c2ccnc3[nH]ccc23)cc1` [Compound F-43, (2R)-2-(Ethylamino)-4-methyl-N-[4-(1H-pyrrolo[2,3-b]pyridin-4-yl)phenyl]pentanamide], the IC50 amounted to 209 nM. Regarding `CC(C)C[C@@H](NC1CC1)C(=O)Nc1ccc(-c2ccnc3[nH]ccc23)cc1` [Compound F-44, (2R)-2-(Cyclopropylamino)-4-methyl-N-[4-(1H-pyrrolo[2,3-b]pyridin-4-yl)phenyl]pentanamide], the IC50 amounted to 555 nM. As to `CC(C)C[C@@H](NCC1CC1)C(=O)Nc1ccc(-c2ccnc3[nH]ccc23)cc1` [Compound F-45, (2R)-2-(Cyclopropymethylamino)-4-methyl-N-[4-[1H-pyrrolo[2,3-b]pyridin-4-yl]phenyl]pentanamide], the IC50 worked out at 683 nM. For `COCCN[C@H](CC(C)C)C(=O)Nc1ccc(-c2ccnc3[nH]ccc23)cc1` [Compound F-46, (2R)-2-(2-Methoxyethylamino)-4-methyl-N-[4-(1H-pyrrolo[2,3-b]pyridin-4-yl)phenyl]pentanamide] the value was 1260 nM; for `CC(C)C[C@@H](NCC(F)(F)F)C(=O)Nc1ccc(-c2ccnc3[nH]ccc23)cc1` [Compound F-47, (2R)-4-Methyl-N-[4-(1H-pyrrolo[2,3-b]pyridin-4-yl)phenyl]-2-(2,2,2-trifluoroethylamino)pentanamide], 3000 nM; for `Cc1cc2c(-c3ccc(NC(=O)[C@H](N)C(C)(C)C)cc3)ccnc2[nH]1` [Compound F-50, (2R)-2-Amino-3,3-dimethyl-N-[4-(2-methyl-1H-pyrrolo[2,3-b]pyridin-4-yl)phenyl]butanamide], 59 nM.

With `Cc1cc2c(-c3ccc(NC(=O)[C@@H](N)C(C)(C)C)cc3)ccnc2[nH]1` [Compound F-51, (2S)-2-Amino-3,3-dimethyl-N-[4-(2-methyl-1H-pyrrolo[2,3-b]pyridin-4-yl)phenyl]butanamide], the half-inhibitory concentration (IC50) was found to be 366 nM.

On to `Cc1cc2c(-c3ccc(NC(=O)[C@H](N)CC(C)(C)C)cc3)ccnc2[nH]1` [Compound F-52, (2R)-2-Amino-4,4-dimethyl-N-[4-(2-methyl-1H-pyrrolo[2,3-b]pyridin-4-yl)phenyl]pentanamide], for which the IC50 was determined as 9.1 nM. For the molecule `CC(C)(C)[C@@H](N)C(=O)Nc1ccc(-c2ccnc3[nH]c(C4CC4)cc23)cc1` [Compound F-54, (2R)-2-Amino-N-[4-(2-cyclopropyl-1H-pyrrolo[2,3-b]pyridin-4-yl)phenyl]-3,3-dimethyl-butanamide], the IC50 came out at 35.1 nM. In the case of `CC(C)(C)[C@@H](N)C(=O)Nc1ccc(-c2ccnc3[nH]c(C(F)(F)F)cc23)cc1` [Compound F-56, (2R)-2-Amino-3,3-dimethyl-N-[4-[2-(trifluoromethyl)-1H-pyrrolo[2,3-b]pyridin-4-yl]phenyl]butanamide], the IC50 came to 108 nM.

Consider `Cc1cc(NC(=O)[C@H](N)CC(C)(C)C)ccc1-c1ccnc2[nH]ccc12` [Compound F-60, (2R)-2-Amino-4,4-dimethyl-N-[3-methyl-4-(1H-pyrrolo[2,3-b]pyridin-4-yl)phenyl]pentanamide], for which the IC50 came to 7.8 nM.

Consider `CC(C)(C)[C@@H](N)C(=O)Nc1ccc(-c2ccnc3[nH]ccc23)c(F)c1` [Compound F-66, (2R)-2-Amino-N-[3-fluoro-4-(1H-pyrrolo[2,3-b]pyridin-4-yl)phenyl]-3,3-dimethyl-butanamide], for which the IC50 worked out at 57.7 nM.

Turning to `CC(C)(C)[C@@H](N)C(=O)Nc1ccc(-c2ccnc3[nH]ccc23)cc1F` [Compound F-71, (2R)-2-Amino-N-[2-fluoro-4-(1H-pyrrolo[2,3-b]pyridin-4-yl)phenyl]-3,3-dimethyl-butanamide], the IC50 turned out to be 64.6 nM. Under `Cc1c(-c2ccnc3[nH]ccc23)ccc(NC(=O)[C@H](N)CC(C)C)c1F` [Compound F-72, (2R)-2-Amino-N-[2-fluoro-3-methyl-4-(1H-pyrrolo[2,3-b]pyridin-4-yl)phenyl]-4-methyl-pentanamide] stands 17 nM.

Take `Cc1cc(NC(=O)[C@H](N)CC(C)C)c(F)cc1-c1ccnc2[nH]ccc12` [Compound F-73, (2R)-2-Amino-N-[2-fluoro-5-methyl-4-(1H-pyrrolo[2,3-b]pyridin-4-yl)phenyl]-4-methyl-pentanamide]: the IC50 was 694 nM.

`Cc1cc(NC(=O)[C@H](N)C(C)(C)C)c(F)cc1-c1ccnc2[nH]ccc12` [Compound F-74, (2R)-2-Amino-N-[2-fluoro-5-methyl-4-(1H-pyrrolo[2,3-b]pyridin-4-yl)phenyl]-3,3-dimethyl-butanamide]: the IC50 was 1060 nM. In the case of `CC(C)C[C@@H](N)C(=O)Nc1ccc(-c2ccnc3[nH]ccc23)cc1C(F)(F)F` [Compound F-76, (2R)-2-Amino-4-methyl-N-[4-(1H-pyrrolo[2,3-b]pyridin-4-yl)-2-(trifluoromethyl)phenyl]pentanamide], the IC50 was 316 nM. For `CC(C)C[C@@H](N)C(=O)Nc1ccc(-c2ccnc3[nH]ccc23)c(OC(F)F)c1` [Compound F-82, (R)-2-Amino-N-(3-(difluoromethoxy)-4-(1H-pyrrolo[2,3-b]pyridin-4-yl)phenyl)-4-methylpentanamide] the value was 21.5 nM; for `CC(C)C[C@@H](N)C(=O)Nc1cccc(-c2ccnc3[nH]ccc23)c1` [Compound F-87, (2R)-2-Amino-4-methyl-N-[3-(1H-pyrrolo[2,3-b]pyridin-4-yl)phenyl]pentanamide], 245 nM; for `CCc1cc(NC(=O)[C@H](N)C(C)(C)C)ccc1-c1ccnc2[nH]ccc12` [Compound F-88, (2R)-2-Amino-N-[3-ethyl-4-(1H-pyrrolo[2,3-b]pyridin-4-yl)phenyl]-3,3-dimethyl-butanamide], 57.5 nM. Under `Cc1cc2c(-c3ccc(NC(=O)[C@H](N)C(C)(C)C)cc3C)ccnc2[nH]1` [Compound F-91, (2R)-2-Amino-3,3-dimethyl-N-[3-methyl-4-(2-methyl-1H-pyrrolo[2,3-b]pyridin-4-yl)phenyl]butanamide] stands 48.8 nM.
